Test results published in US6831080B2, “Cinnamide derivatives as KCNQ potassium channel modulators” (Bristol-Myers Squibb Company, priority 2001, dated 2004).

Tests used:
mKCNQ2 channels = molecular target: T1, mKCNQ2 channels (Mus musculus, UniProt Q9Z351); test: Whole-cell patch-clamp, HEK 293 stable cell line expressing mKCNQ2 channels; assay type: cell-based; conditions: HEK 293 mKCNQ2, Hill fit; for EC50: @ −40 mV; for Emax: HEK293, read-out: Imax (%)
T1 construct: expressed in transfected cells
T1 sequence (Q9Z351 whole entry): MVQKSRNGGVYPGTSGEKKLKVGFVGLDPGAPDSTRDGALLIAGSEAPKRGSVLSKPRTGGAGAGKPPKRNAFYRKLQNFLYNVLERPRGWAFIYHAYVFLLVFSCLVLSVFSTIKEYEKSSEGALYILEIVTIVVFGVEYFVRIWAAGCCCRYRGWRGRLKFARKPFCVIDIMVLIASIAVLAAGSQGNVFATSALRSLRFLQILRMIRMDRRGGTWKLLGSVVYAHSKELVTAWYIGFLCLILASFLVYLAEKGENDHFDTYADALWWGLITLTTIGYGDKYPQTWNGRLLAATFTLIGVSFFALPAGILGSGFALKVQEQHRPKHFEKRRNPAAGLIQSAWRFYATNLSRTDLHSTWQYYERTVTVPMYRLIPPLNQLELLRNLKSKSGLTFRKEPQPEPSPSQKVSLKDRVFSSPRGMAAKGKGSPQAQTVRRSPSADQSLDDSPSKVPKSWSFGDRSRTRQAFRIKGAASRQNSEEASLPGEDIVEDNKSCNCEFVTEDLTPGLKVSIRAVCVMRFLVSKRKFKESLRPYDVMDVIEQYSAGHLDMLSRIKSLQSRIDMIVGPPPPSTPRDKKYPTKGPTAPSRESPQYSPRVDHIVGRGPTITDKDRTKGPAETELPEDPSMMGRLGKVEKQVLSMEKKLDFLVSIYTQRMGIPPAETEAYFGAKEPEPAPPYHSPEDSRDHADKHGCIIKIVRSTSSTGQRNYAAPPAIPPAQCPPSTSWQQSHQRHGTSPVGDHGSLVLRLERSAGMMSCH
Procedure: Whole-cell patch-clamp recordings were made from an HEK 293 stable cell line expressing mKCNQ2 channels, maintained in culture for 1-2 days. Patch pipettes had initial resistances of 2.5-4 MΩ. Currents were recorded with an EPC-9 amplifier (HEKA, Lambrecht, Germany) controlled with software (Pulse, HEKA) run on a standard lab PC. Series resistance compensation was used during current recording, and set at 80%. The series resistance (R) and cell capacitance (C) were determined electronically by subtracting the capacitive currents at the onset and offset of a 5 mV voltage step. The cancellation of whole-cell capacitance transients was virtually complete in all cells. Analog current signals were low-pass filtered at 2.9 kHz using a four-pole Bessel filter −3 dB) and stored on a local network server computer at a sampling rate of […]. All recordings were performed at room temperature (20-22° C.). The pipette solution contained (mM): KCl, 150; CaCl2, 2.5; EGTA, 5; MgCl2, 1; HEPES, 10; pH to 7.3 with KOH, and Osmolality of 290-300 mOsm. The extracellular solution contained (mM): NaCl, 140; KCl, 2.5; CaCl2, 2.5; MgCl2, 1; glucose, 10; HEPES, 10; pH to 7.3 with NaOH, and Osmolality of 305-310 mOsm
Concentration response data were generated by measuring the difference in the steady-state amplitude of current in the presence of compound at the end of a 600 ms voltage-clamp step from a holding potential of −80 mV. The concentration-response data were fitted with Hill-type equations: […]
where I is the steady-state current at a given concentration of agonist [A]; and Imax, EC50 and nH are parameters estimated from the curve fit. In some cases the concentration-response data were fitted with equations consisting of the sum of two Hill-type components. Current-voltage (I/V) relationships for agonist-evoked currents were obtained by performing 600 ms voltage steps (−110 mV to +40 mV) in the absence and presence of agonist.

SMILES | melting point | EC50 (mKCNQ2 channels) | Emax (mKCNQ2 channels)
CC(NC(=O)/C=C/c1cc(F)ccc1F)c1ccc2c(c1)OCO2 (racemic) [Example 38, (±)-N-(1-Benzo[1,3]-diox-ol-5-yl-ethyl)-3-(2,5-di-fluoro-phenyl)-acrylamide] | – | 4.2 µM | 550%
CC(NC(=O)/C=C/c1ccccc1Cl)c1ccc2c(c1)OCO2 (racemic) [Example 46, (±)-N-(1-Benzo[1,3]-diox-ol-5-yl-ethyl)-3-(2-chlor-o-phenyl)-acrylamide] | – | 0.0006 µM | 260%
CC(NC(=O)/C=C/c1cc(F)ccc1F)c1ccc2c(c1)NCCC2 (racemic) [Example 234, (±)-3-(2,5-difluoro-phenyl)-N-[1-(1,2,3,4-tetrahydro-quinolin-7-yl)ethyl]-acrylamide] | 139 to 141 °C | – | –
CC(NC(=O)/C=C/c1ccc(F)cc1)c1ccc2c(c1)NCCC2 (racemic) [Example 235, (±)-3-(4-fluoro-phenyl)-N-[1-(1,2,3,4-tetrahydro-quinolin-7-yl)ethyl]-acrylamide] | 125 to 127 °C (dec.) | – | –
CCN1CCOc2ccc(C(C)NC(=O)/C=C/c3ccccc3F)cc21 (single isomer, unassigned) [Example 214, 3-(2-fluoro-phenyl)-N-[1-(4-ethyl-3,4-dihydro-2H-benzo[1,4]oxazin-6-yl)ethyl]-acrylamide] | – | 0.0009 µM | 260%
CC(NC(=O)/C=C/c1ccccc1F)c1ccc2c(c1)N(CC1CC1)CCO2 (single isomer, unassigned) [Example 215, 3-(2-fluoro-phenyl)-N-[1-(4-cyclopropylmethyl-3,4-dihydro-2H-benzo[1,4]oxazin-6-yl)ethyl]-acrylamide] | – | 5.4 µM | –
C[C@H](NC(=O)/C=C/c1ccc(Cl)cc1F)c1cccc(N2CCOCC2)c1 [Example 97, (S)-3-(4-Chloro-2-fluoro-phen-yl)-N-[1-(3-morpho-lin-4-yl-phenyl)-eth-yl]-acrylamide] | – | 2.9 µM | –
CC(NC(=O)/C=C/c1cc(F)cc(F)c1)c1ccc2c(c1)CCCN2 (stereo not shown) [Example 248, 3-(3,5-difluoro-phenyl)-N-[1-(1,2,3,4-tetrahydro-quinolin-6-yl)-ethyl]acrylamide] | 180 °C (dec.) | 5 µM | 290%
CC(NC(=O)/C=C/c1ccc(F)c(F)c1)c1ccc2c(c1)CCCN2 (stereo not shown) [Example 250, 3-(3,4-difluoro-phenyl)-N-[1-(1,2,3,4-tetrahydro-quinolin-6-yl)-ethyl]acrylamide] | 156 °C (dec.) | – | –
CC(NC(=O)/C=C/c1ccccc1F)c1ccc2c(c1)CCCN2 (stereo not shown) [Example 251, 3-(2-fluoro-phenyl)-N-[1-(1,2,3,4-tetrahydro-quinolin-6-yl)ethyl]acrylamide] | 149 to 151 °C (dec.) | – | –
CC(NC(=O)/C=C/c1cc(F)ccc1F)c1ccc2c(c1)CCCN2 (stereo not shown) [Example 252, 3-(2,5-difluoro-phenyl)-N-[1-(1,2,3,4-tetrahydro-quinolin-6-yl)-ethyl]acrylamide] | 55 to 58 °C | – | –
CC(NC(=O)/C=C/c1c(F)cccc1F)c1ccc2c(c1)CCCN2 (stereo not shown) [Example 253, 3-(2,6-difluoro-phenyl)-N-[1-(1,2,3,4-tetrahydro-quinolin-6-yl)ethyl]acrylamide] | 77 to 80 °C | – | –
CC(NC(=O)/C=C/c1cccc(F)c1)c1ccc2c(c1)CCCN2 (stereo not shown) [Example 254, 3-(3-fluoro-phenyl)-N-[1-(1,2,3,4-tetrahydro-quinolin-6-yl)ethyl]acrylamide] | 172 to 174 °C | – | –
CC(NC(=O)/C=C/c1ccc(F)cc1)c1ccc2c(c1)CCCN2 (stereo not shown) [Example 255, 3-(4-fluoro-phenyl)-N-[1-(1,2,3,4-tetrahydro-quinolin-6-yl)ethyl]acrylamide] | 140 to 143 °C | – | –

Continued, values first:

melting point | EC50 (mKCNQ2 channels) | Emax (mKCNQ2 channels) | SMILES
171 to 173 °C | – | – | CC(NC(=O)/C=C/c1ccccc1F)c1ccc2c(c1)NCCC2 (racemic)
130 to 132 °C (dec.) | – | – | CC(NC(=O)/C=C/c1cccc(F)c1)c1ccc2c(c1)NCCC2 (racemic) [Example 232, (±)-3-(3-Fluoro-phenyl)-N-[1-(1,2,3,4-tetrahydro-quinolin-7-yl)ethyl]-acrylamide]
144 to 146 °C | – | – | CC(NC(=O)/C=C/c1ccccc1)c1ccc2c(c1)NCCC2 (racemic) [Example 233, (±)-3-phenyl-N-[1-(1,2,3,4-tetrahydro-quinolin-7-yl)ethyl]-acrylamide]
60 to 63 °C | – | – | CC(NC(=O)/C=C/c1ccccc1F)c1ccc2c(c1)N(C)CCC2 (racemic) [Example 236, (±)-3-(2-fluoro-phenyl)-N-[1-(1-methyl-1,2,3,4-tetrahydro-quinolin-7-yl)ethyl]acrylamide]
52 to 55 °C | – | – | CC(NC(=O)/C=C/c1cc(F)ccc1F)c1ccc2c(c1)N(C)CCC2 (racemic) [Example 237, (±)-3-(2,5-difluoro-phenyl)-N-[1-(1-methyl-1,2,3,4-tetrahydro-quinolin-7-yl)ethyl]acrylamide]
166 °C (dec.) | – | – | CC(NC(=O)/C=C/c1ccccc1)c1ccc2c(c1)N(C)CCC2 (racemic) [Example 238, (±)-N-[1-(1-methyl-1,2,3,4-tetrahydro-quinolin-7-yl)-ethyl]-3-phenyl-acrylamide]
60 to 63 °C | – | – | CC(NC(=O)/C=C/c1cccc(F)c1)c1ccc2c(c1)N(C)CCC2 (racemic) [Example 239, (±)-3-(3-fluoro-phenyl)-N-[1-(1-methyl-1,2,3,4-tetrahydro-quinolin-7-yl)ethyl]acrylamide]
183 to 185 °C | – | – | CC(NC(=O)/C=C/c1ccc(F)cc1)c1ccc2c(c1)N(C)CCC2 (racemic) [Example 240, (±)-3-(4-fluoro-phenyl)-N-[1-(1-methyl-1,2,3,4-tetrahydro-quinolin-7-yl)ethyl]acrylamide]
50 to 52 °C | – | – | CCN1CCCc2ccc(C(C)NC(=O)/C=C/c3ccccc3)cc21 (racemic) [Example 241, (±)-N-[1-(1-ethyl-1,2,3,4-tetrahydro-quinolin-7-yl)-ethyl]-3-phenyl-acrylamide]
50 to 53 °C | 1.4 µM | – | CCN1CCCc2ccc(C(C)NC(=O)/C=C/c3cc(F)ccc3F)cc21 (racemic) [Example 242, (±)-3-(2,5-difluoro-phenyl)-N-[1-(1-ethyl-1,2,3,4-tetrahydro-quinolin-7-yl)ethyl]acrylamide]
65 to 68 °C | – | – | CC(=O)N1CCCc2ccc(C(C)NC(=O)/C=C/c3ccccc3)cc21 (racemic) [Example 243, (±)-N-[1-(1-acetyl-1,2,3,4-tetrahydro-quinolin-7-yl)-ethyl]-3-phenyl-acrylamide]
64 to 67 °C | – | – | CC(NC(=O)/C=C/c1ccccc1)c1ccc2c(c1)CCCN2 (stereo not shown) [Example 249, 3-phenyl-N-[1-(1,2,3,4-tetrahydro-quinolin-6-yl)ethyl]acrylamide]
65 to 68 °C | – | – | CC(NC(=O)/C=C/c1ccccc1)c1ccc2c(c1)CCCN2C (stereo not shown) [Example 256, N-[1-(1-methyl-1,2,3,4-tetrahydro-quinolin-6-yl)-ethyl]-3-phenyl-acrylamide]
51 to 55 °C | – | – | CC(NC(=O)/C=C/c1cc(F)ccc1F)c1ccc2c(c1)CCCN2C (stereo not shown) [Example 257, 3-(2,5-difluoro-phenyl)-N-[1-(1-methyl-1,2,3,4-tetrahydro-quinolin-6-yl)ethyl]acrylamide]
